The results in this text go back to patent US20080166805A1, “Culturing human cells and tissues in an N-glycolylneuraminic acid-free environment” (The Regents of the University of California, priority 2005, published 2008).

In one assay the test system is Caco-2 cells. In words: Competition of free Neu5Ac with free Neu5Gc for incorporation into Caco-2 cells. The class given is cell-based, human. Here is the method: Neu5Gc and ManNGc Feeding Experiment—Neu5Ac, Neu5Gc or ManNGc were dried, dissolved in the appropriate media supplemented with heat-inactivated human serum, sterilized using a Spin-X® (Corning Inc., Corning, N.Y.) and then added to the cells. The pH of the media containing Sia was adjusted to neutrality using sterilized 1M NaOH before starting the feeding experiment. Cells were cultured in the presence of up to 3 mM free Sia or ManNGc for 1 or 3 days at 37° C. At the end of the feeding, cells were washed with cold PBS, harvested either by scraping or with 2 mM EDTA for fibroblasts, and washed again with cold PBS prior to fractionation.
Fractionation of the Labeled Cells—Washed cell pellets were sonicated into 500 μL of 20 mM sodium phosphate buffer or 20 mM Tris-HCl, pH 7.5, using 4×15 second pulses of a sonicator cell disrupter, model Some Dismembrator (Fisher Scientific, Hampton, N.J.) at a probe setting of 3. The sonicate was centrifuged at 75×g for 15 min., and the pellet obtained consisted primarily of nuclei and unbroken cells. The pellet contained <5% of the incorporated sialic acid as determined using a radioactive tracer (data not shown.) The supernatant was therefore considered as the “total homogenate” fraction. A portion (20%) of the “total homogenate” fraction was taken for protein quantification and Sia analysis by DMB derivatization and HPLC analysis (as discussed below.) The remainder was centrifuged at 100,000×g for 1 h. The resulting pellet, called the “membrane” fraction, was then resuspended by sonication (15 sec.) in 200 μl of sodium acetate buffer, pH 5.5. The 100,000×g supernatant, called the “soluble” fraction was adjusted to 90% ethanol using absolute ice-cold ethanol, and placed overnight at −20° C. The flocculant precipitate, which represents the “soluble protein” fraction, was washed 3 times with 90% ice-cold ethanol and then resuspended in 200 μl of water. The supernatant fluid representing the cytosolic low molecular weight (LMW) fraction was dried and brought up in 100 μL with water prior to Sia analysis. All the Sias in these fractions were released with mild acid hydrolysis if necessary and then analyzed by HPLC after DMB derivatization. Protein quantification was performed on the total homogenate, membrane and soluble protein fractions by using the BCA protein assay kit from Pierce (Rockford, Ill.) In some experiments, the resulting data obtained for the Sia bound to the membrane fraction and to the soluble proteins were pooled and presented here as a High Molecular Weight (HMW) fraction.
Sialic Acid Release, DMB Derivatization and HPLC Analysis—The bound Sias from the total homogenate, membrane and soluble protein fractions were released using 2M acetic acid hydrolysis, 3 h. at 80° C. The released Sias, or free Sias, contained in the soluble LMW fraction were passed through a Microcon® YM-10 filter (Millipore, Bedford, Mass.) prior to DMB derivatization, which was done according to Hara et al., 1989. DMB-Sia derivatives from the different fractions were then analyzed by HPLC using a C18 column (Microsorb Mv-TM 100 A, Varian, Palo Alto, Calif.) Isocratic elution was achieved using 7% methanol, 8% acetonitrile in water during 50 min. at 0.9 ml/min flow. The eluant was monitored by fluorescence.
Quantification of Sias—For all HPLC chromatograms, the quantification of Sias was done by comparison with known quantities of DMB derivatized Neu5Gc and Neu5Ac used as standards and then reported in terms of pmoles of Sia. For total homogenate, membrane and cytosolic protein fractions, this number was expressed per mg of protein. Due to minor sample-to-sample variations in amounts and recoveries, the data in the Figures is presented as percent of Neu5Gc over total Sias, rather than as absolute amounts.

The subject of a further assay is chimpanzee lymphoblasts. Put plainly: Neu5Gc/Neu5Ac feeding experiment, chimpanzee EBV-transformed lymphoblasts. In kind it is cell-based. The settings on record: chimpanzee lymphoblasts fed 3 mM Neu5Ac for 3 days. On the procedure:
(§1) Cell Culture—Caco-2 cells were propagated in alpha-MEM containing GLUTAMAX™ (Invitrogen, San Diego, Calif.) and a mixture of ribonucleosides and deoxyribonucleosides (Gibco/Invitrogen, San Diego, Calif.) supplemented with 20% FCS. All the fibroblast cell lines and CHO-K1 cells were cultured in the same media supplemented respectively with 15% non-heat inactivated FCS or 10% heat inactivated FCS. Chimpanzee Fred and human […] EBV-transformed lymphoblasts were cultured in RPMI-1640 (Gibco/Invitrogen, San Diego, Calif.) supplemented with 10% heat inactivated FCS or 15% human serum. All of the cultures were maintained at 37° C., 5% CO2 atmosphere. In order to deplete any remaining Neu5Gc from FCS, the cells were split and cultured prior to Neu5Gc feeding experiments for at least 4 days in alpha-MEM supplemented with an adequate percentage of heat-inactivated premium human serum instead of FCS. The cells were then maintained under the same conditions during the whole feeding experiment. The human serum was heat inactivated at 56° C. for 30 min. before use.
(§2) Neu5Gc and ManNGc Feeding Experiment—Neu5Ac, Neu5Gc or ManNGc were dried, dissolved in the appropriate media supplemented with heat-inactivated human serum, sterilized using a Spin-X® (Corning Inc., Corning, N.Y.) and then added to the cells. The pH of the media containing Sia was adjusted to neutrality using sterilized 1M NaOH before starting the feeding experiment. Cells were cultured in the presence of up to 3 mM free Sia or ManNGc for 1 or 3 days at 37° C. […]
(§3) Fractionation of the Labeled Cells—Washed cell pellets were sonicated into 500 μL of 20 mM sodium phosphate buffer or 20 mM Tris-HCl, pH 7.5, using 4×15 second pulses of a sonicator cell disrupter, model Some Dismembrator (Fisher Scientific, Hampton, N.J.) at a probe setting of 3. […] The pellet contained <5% of the incorporated sialic acid as determined using a radioactive tracer (data not shown.) The supernatant was therefore considered as the “total homogenate” fraction. A portion (20%) of the “total homogenate” fraction was taken for protein quantification and Sia analysis by DMB derivatization and HPLC analysis (as discussed below.) The remainder was centrifuged at 100,000×g for 1 h. […] All the Sias in these fractions were released with mild acid hydrolysis if necessary and then analyzed by HPLC after DMB derivatization. Protein quantification was performed on the total homogenate, membrane and soluble protein fractions by using the BCA protein assay kit from Pierce (Rockford, Ill.) In some experiments, the resulting data obtained for the Sia bound to the membrane fraction and to the soluble proteins were pooled and presented here as a High Molecular Weight (HMW) fraction. […]

The test system of assay [1] is human LB EBV-transformed lymphoblasts. In words: Neu5Gc/Neu5Ac feeding experiment, human EBV-transformed lymphoblasts. In kind it is cell-based. As to conditions: human lymphoblasts fed 3 mM Neu5Ac for 3 days. On the procedure: as §1, §2, §3
[2] abbreviates: 3 mM Neu5Gc for 3 days in the presence of 15 mM Neu5Ac.

On to `CC(=O)N[C@H]1[C@H]([C@H](O)[C@H](O)CO)OC(O)(C(=O)O)C[C@@H]1O` (stereo partly drawn) [Neu5Ac, N-acetylneuraminic acid], for which the “Neu5Gc as percent of total Sia, TH” value in the assay on Caco-2 cells (3 mM Neu5Gc for 3 days in the presence of 3 mM Neu5Ac) was found to be 48%; in the assay with Caco-2 cells (setting [2]), 35%. In addition, the “Neu5Gc as percent of total Sia, membrane-bound fraction” value in the assay on Caco-2 cells (setting [2]) is reported as “almost to zero”; with Caco-2 cells (3 mM Neu5Gc for 3 days with 3 mM Neu5Ac) it was 29.9%. For the same compound, in the assay with chimpanzee lymphoblasts, the “change of percentages of Neu5Gc in the different fractions” value is on record as “changed only minimally”. Besides, the “Neu5Gc content of the fractions” value in assay [1] was “almost no detectable Neu5Gc”.
